Laboratory results: patent US8546608B2, “Proteasome inhibitors and methods of using the same” (Cephalon, Inc., priority 2003, dated 2013)
Structures can show the parent of a compound that is named as a salt. Where two headings read alike, the source gives them in different places.

Legend:
[1] = biological target: T1, 20S Human Erythrocyte Proteasome (HEP) (Homo sapiens, UniProt P20618+P28074); assay: Chymotrypsin-like activity of 20S Human Erythrocyte Proteasome (HEP), IC50 determination; assay type: biochemical; settings: assay of Example C, inhibition of HEP
T1 construct: 20S Human Erythrocyte Proteasome (HEP), purchased from Immatics Biotechnologies Inc; purchased Immatics Biotechnologies Inc., Tübingen, Germany; host or cells: human erythrocytes (natural source)
Method in brief: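 20S proteasome at 0.2 μg/mL (about 0.6 nM catalytic sites) in 20 mM Tris with 0.04% SDS, preincubated 15 min at 37° C with inhibitor before Suc-LLVY-AMC (100 μM final). AMC fluorescence read in the linear range; triplicates, IC50 from concentration series.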

[2] = biological target: T2, proteasome in Molt-4 cells (human leukemia) (Homo sapiens, UniProt P20618+P28074); assay type: cell-based
T2 sequence (P28074 60-263): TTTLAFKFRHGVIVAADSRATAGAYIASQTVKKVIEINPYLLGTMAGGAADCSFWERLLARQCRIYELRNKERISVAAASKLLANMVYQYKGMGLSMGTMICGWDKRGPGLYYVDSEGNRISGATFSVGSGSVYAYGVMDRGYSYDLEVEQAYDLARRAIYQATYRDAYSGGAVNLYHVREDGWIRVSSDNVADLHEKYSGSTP
T2 sequence (P20618 29-241): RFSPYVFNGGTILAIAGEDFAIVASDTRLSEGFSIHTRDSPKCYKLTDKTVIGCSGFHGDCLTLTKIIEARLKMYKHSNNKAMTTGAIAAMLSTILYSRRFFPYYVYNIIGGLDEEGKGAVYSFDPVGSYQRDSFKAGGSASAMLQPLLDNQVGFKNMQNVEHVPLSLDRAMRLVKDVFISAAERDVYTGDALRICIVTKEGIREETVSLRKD
Method in brief: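 Intact Molt-4 cells (6×10^6 cells/mL) in HEPES-buffered saline were preincubated with inhibitor 15 min at 37 °C, then given cell-permeable MeOSuc-FLF-AFC at 25 μM final.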

[3] = assay of Example E, inhibition of MOLT4; read-out: MOLT4 (EC50)

| Structure (SMILES) | IC50 [1] [nM] | EC50 [2, 3] [nM] | EC50 ([2]; read-out: MOLT4 (EC50); assay of Example E, inhibition of MOLT4) [nM] |
| --- | --- | --- | --- |
| CSCC(=O)N[C@@H](CCCNC(=N)N[N+](=O)[O-])C(=O)N[C@@H](CC(C)C)B(O)O [E.2.68, Boronic acid, [(1R)-1-[[(2S)-5-[[imino(nitroamino)methyl]amino]-2-[(2-methylsulfanylacetyl)amino]-1-oxopentyl]amino]-3-methylbutyl]] | < 10 | > 10000 | – |
| CC(C)C[C@H](NC(=O)[C@H](CCCNC(=N)N[N+](=O)[O-])NC(=O)CCS(=O)(=O)c1ccccc1)B(O)O [E.2.70, Boronic acid, [(1R)-1-[[(2S)-5-[[imino(nitroamino)methyl]amino]-2-[[3-(benzenesulfonyl)propanoyl]amino]-1-oxopentyl]amino]-3-methylbutyl]] | < 10 | > 10000 | – |
| CC(=O)NCCCCCC(=O)N[C@@H](CCCNC(=N)N[N+](=O)[O-])C(=O)N[C@@H](CC(C)C)B(O)O [E.2.75, Boronic acid, [(1R)-1-[[(2S)-5-[[imino(nitroamino)methyl]amino]-2-[[6-(acetylamino)hexanoyl]amino]-1-oxopentyl]amino]-3-methylbutyl]] | < 10 | > 10000 | – |
| CC(C)C[C@H](NC(=O)[C@H](CCCNC(=N)N[N+](=O)[O-])NC(=O)COc1ccc(Br)cc1)B(O)O [E.2.77, Boronic acid, [(1R)-1-[[(2S)-5-[[imino(nitroamino)methyl]amino]-2-[[2-(4-bromophenoxy)acetyl]amino]-1-oxopentyl]amino]-3-methylbutyl]] | < 10 | 2000 to 10000 | – |
| CCc1ccc(CCC(=O)N[C@@H](CCCNC(=N)N[N+](=O)[O-])C(=O)N[C@@H](CC(C)C)B(O)O)cc1 [E.2.78, Boronic acid, [(1R)-1-[[(2S)-5-[[imino(nitroamino)methyl]amino]-2-[[3-(4-ethylphenyl)propanoyl]amino]-1-oxopentyl]amino]-3-methylbutyl]] | < 10 | 2000 to 10000 | – |
| CCCCCCCOc1ccc(NC(=O)N[C@@H](CCCNC(=N)N[N+](=O)[O-])C(=O)N[C@@H](CC(C)C)B(O)O)cc1 [E.2.79, Boronic acid, [(1R)-1-[[(2S)-5-[[imino(nitroamino)methyl]amino]-2-[3-[4-(heptyloxy)phenyl]-ureido]-1-oxopentyl]amino]-3-methylbutyl]] | < 10 | 200 to 2000 | – |
| CC(=O)CCCC(=O)N[C@@H](CCCNC(=N)N[N+](=O)[O-])C(=O)N[C@@H](CC(C)C)B(O)O [E.2.80, Boronic acid, [(1R)-1-[[(2S)-5-[[imino(nitroamino)methyl]amino]-2-[(5-oxohexanoyl)amino]-1-oxopentyl]amino]-3-methylbutyl]] | < 100 | 2000 to 10000 | – |
| CCCCc1ccc(C(=O)N[C@H](C(=O)N[C@@H](CC(C)C)B(O)O)[C@@H](C)O)cc1 [E.3, Boronic Acid, [(1R)-1-[[(2S,3R)-3-hydroxy-2-[(4-butylbenzoyl)amino]-1-oxobutyl]amino]-3-methylbutyl]] | < 10 | < 200 | – |
| CC(C)C[C@H](NC(=O)[C@@H](NC(=O)c1ccc2ccccc2c1)[C@@H](C)O)B(O)O [E.3.1, Boronic acid, [(1R)-1-[[(2S,3R)-3-hydroxy-2-[(2-naphthoyl)amino]-1-oxobutyl]amino]-3-methylbutyl]] | < 10 | < 200 | – |
| Cc1ccc(OCC(=O)N[C@H](C(=O)N[C@@H](CC(C)C)B(O)O)[C@@H](C)O)cc1 [E.3.2] | < 10 | < 200 | – |
| CC(C)C[C@H](NC(=O)[C@@H](NS(=O)(=O)c1ccc2ccccc2c1)[C@@H](C)O)B(O)O [E.3.4, Boronic acid, [(1R)-1-[[(2S,3R)-3-hydroxy-2-[(naphthalene-2-sulfonyl)amino]-1-oxobutyl]amino]-3-methylbutyl]] | < 100 | < 200 | – |
| CCCCCCCCC(C)(C)C(=O)N[C@H](C(=O)N[C@@H](CC(C)C)B(O)O)[C@@H](C)O [E.3.6, Boronic acid, [(1R)-1-[[(2S,3R)-3-hydroxy-2-[(2,2 dimethyl-decanoyl)amino]-1-oxobutyl]amino]-3-methylbutyl]] | < 10 | < 200 | – |
| CC(C)C[C@H](NC(=O)[C@@H](NC(=O)c1ccc(Oc2ccccc2)cc1)[C@@H](C)O)B(O)O [E.3.7, Boronic acid, [(1R)-1-[[(2S,3R)-3-hydroxy-2-[(4-Phenoxybenzoyl)amino]-1-oxobutyl]amino]-3-methylbutyl]] | < 10 | < 200 | – |
| CCCOc1ccc(C(=O)N[C@H](C(=O)N[C@@H](CC(C)C)B(O)O)[C@@H](C)O)cc1 [E.3.8] | < 10 | < 200 | – |
| CC(C)C[C@H](NC(=O)[C@@H](NC(=O)c1cccc(-c2cccnc2)c1)[C@@H](C)O)B(O)O [E.3.9, Boronic acid, [(1R)-1-[[(2S,3R)-3-hydroxy-2-[(3-pyridin-3-yl-benzoyl)amino]-1-oxobutyl]amino]-3-methylbutyl], hydrochloride salt] | < 10 | – | < 200 |
| CCCOc1cccc(C(=O)N[C@H](C(=O)N[C@@H](CC(C)C)B(O)O)[C@@H](C)O)c1 [E.3.10, Boronic acid, [(1R)-1-[[(2S,3R)-3-hydroxy-2-[(3-propoxy-benzoyl)amino]-1-oxobutyl]amino]-3-methylbutyl]] | < 10 | < 200 | – |
| CC(C)C[C@H](NC(=O)[C@@H](NC(=O)c1ccc(-c2cccnc2)cc1)[C@@H](C)O)B(O)O [E.4, Boronic Acid, [(1R)-1-[[(2S,3R)-3-hydroxy-2-[[4-(3-pyridyl)benzoyl]amino]-1-oxobutyl]amino]-3-methylbutyl]] | < 10 | < 200 | – |
| CC(C)C[C@H](NC(=O)[C@@H](NC(=O)c1cnccn1)[C@@H](C)O)B(O)O [E.4.1, Boronic acid, [(1R)-1-[[(2S,3R)-3-hydroxy-2-[(2-pyrazinecarbonyl)amino]-1-oxobutyl]amino]-3-methylbutyl]] | < 100 | 200 to 2000 | – |
| CCCCc1ccc(C(=O)N[C@H](C(=O)N[C@@H](CC(C)C)B(O)O)[C@@H](C)O)nc1 [E.4.2, Boronic acid, [(1R)-1-[[(2S,3R)-3-hydroxy-2-[(5-butyl-pyridine-2-carbonyl)amino]-1-oxobutyl]amino]-3-methylbutyl]] | < 100 | < 200 | – |
| CCCCc1ccc(C(=O)N[C@@H](CNC(=O)c2cnccn2)C(=O)N[C@@H](CC(C)C)B(O)O)cc1 [E.5, Boronic Acid, [(1R)-1-[[(2S)-3-(2-pyrazincarbonylamino)-2-[(4-butylbenzoylamino)]-1-oxopropyl]amino]-3-methylbutyl]] | < 10 | < 200 | – |
| CCCCCCCCCC(=O)N[C@@H](CNC(C)=O)C(=O)N[C@@H](CC(C)C)B(O)O [E.5.1, Boronic acid, [(1R)-1-[[(2S)-3-(acetylamino)-2-[(decanoylamino)]-1-oxopropyl]amino]-3-methylbutyl]] | < 10 | < 200 | – |
| CCCCc1ccc(C(=O)N[C@@H](CNC(=O)NCCC)C(=O)N[C@@H](CC(C)C)B(O)O)cc1 [E.5.2, Boronic acid, [(1R)-1-[[(2S)-3-(propylureido)-2-[(4-butyl)-benzoylamino]-1-oxopropyl]amino]-3-methylbutyl]] | < 10 | < 200 | – |
| CCCCc1ccc(C(=O)N[C@@H](CNC(=O)c2ccc(C)cc2)C(=O)N[C@@H](CC(C)C)B(O)O)cc1 [E.5.5] | < 10 | < 200 | – |
| CCCCc1ccc(C(=O)N[C@@H](CNC(=O)c2cccs2)C(=O)N[C@@H](CC(C)C)B(O)O)cc1 [E.5.7, Boronic acid, [(1R)-1-[[(2S)-3-[(thien-2-ylcarbonyl)amino]-2-[(4-butylbenzoylamino)]-1-oxopropyl]amino]-3-methylbutyl]] | < 10 | < 200 | – |
| CCCCCCCCCC(=O)N[C@@H](CNC(=O)c1cccs1)C(=O)N[C@@H](CC(C)C)B(O)O [E.5.9] | < 10 | < 200 | – |
| CCCCCC(=O)NC[C@H](NC(=O)c1ccc(CCCC)cc1)C(=O)N[C@@H](CC(C)C)B(O)O [E.5.10, Boronic acid, [(1R)-1-[[(2S)-3-(hexanoylamino)-2-[(4-butylbenzoylamino)]-1-oxopropyl]amino]-3-methylbutyl]] | < 10 | < 200 | – |
| CCCCCCCCCC(=O)N[C@@H](CNS(=O)(=O)c1ccc(F)cc1)C(=O)N[C@@H](CC(C)C)B(O)O [E.5.12, Boronic acid, [(1R)-1-[[(2S)-3-[4-fluoro-benzenesulfonamide]-2-[(decanoyl)amino]-1-oxopropyl]amino]-3-methylbutyl]] | < 10 | < 200 | – |
| CCCCCCCCCC(=O)N[C@@H](CNC(=O)CCCCC)C(=O)N[C@@H](CC(C)C)B(O)O [E.5.13, Boronic acid, [(1R)-1-[[(2S)-3-(hexanonylamino)-2-[(decanoylamino)]-1-oxopropyl]amino]-3-methylbutyl]] | < 10 | < 200 | – |
